Reference: patent US20230233576A1, “ECLITASERTIB FOR USE IN TREATING CONDITIONS INVOLVING SYSTEMIC HYPERINFLAMMATORY RESPONSE” (priority 2020, published 2023)

System: adult participants hospitalized for severe COVID-19
Assay: Phase 1b severe COVID-19 study: ECG abnormalities (PCSA)
Type: in vivo, human
Settings: 600 mg
Procedure: Physical examination including lung auscultation and assessment of consciousness, vital sign, electrocardiogram (ECG) parameters were measured per protocol.
For laboratory parameters (hematology, clinical chemistry, and urinalysis), vital signs, and ECG, incidences of potentially clinically significant abnormality (PCSA) values, actual values and change from baseline were summarized by treatment group.
For all laboratory, vital signs and ECG parameters, raw data and change from baseline were summarized in descriptive statistics by treatment group and scheduled time of measurement, with the exception of AST, ALT and alkaline phosphatase: instead of summarizing data in descriptive statistics, participants' profiles were presented through graphics by treatment group and with a color code to identify sites. The reason was that blood samples were processed by local laboratories with different normal ranges. For the rest of clinical laboratory these parameters it is reasonable to pool data as they are standard procedure and no significant differences in normal ranges were expected.

[1] = individual participant 70.0 kg, Discharge Before Day 15
[2] = individual participant 87.2 kg, Discharge Before Day 15
[3] = individual participant 120.0 kg, Day 15
[4] = individual participant 125.0 kg, Discharge Before Day 15

SMILES: CN1C(=O)[C@@H](NC(=O)c2nnc(Cc3ccccc3)[nH]2)COc2cccnc21 [RIPKl Inhibitor]
- HR (bpm) Delta (change from baseline) [1]: −25 bpm
- HR (bpm) Value [1]: 76 bpm
- PR % change from baseline [1]: 0.0%
- PR (ms) Value [1]: 120 ms
- QRS % change from baseline [1]: −38%
- QRS (ms) Value [1]: 100 ms
- QT (ms) Delta (change from baseline) [1]: 100 ms
- QT (ms) Value [1]: 460 ms
- QTcB (ms) Delta (change from baseline) [1]: 50 + ms
- QTcB (ms) Value [1]: 517 ++ ms
- QTcF (ms) Delta (change from baseline) [1]: 75 ++ ms
- QTcF (ms) Value [1]: 495 ++ ms
- HR (bpm) Delta (change from baseline) [2]: 18 bpm
- HR (bpm) Value [2]: 86 bpm
- PR % change from baseline [2]: 0.0%
- PR (ms) Value [2]: 150 ms
- QRS % change from baseline [2]: 25.0%
- QRS (ms) Value [2]: 100 ms
- QT (ms) Delta (change from baseline) [2]: 30 ms
- QT (ms) Value [2]: 370 ms
- QTcB (ms) Delta (change from baseline) [2]: 81 ++ ms
- QTcB (ms) Value [2]: 443 ms
- QTcF (ms) Delta (change from baseline) [2]: 63 ++ ms
- QTcF (ms) Value [2]: 417 ms
- HR (bpm) Delta (change from baseline) [3]: 0 bpm
- HR (bpm) Value [3]: 69 bpm
- PR % change from baseline [3]: 31.9%
- PR (ms) Value [3]: 124 ms
- QRS % change from baseline [3]: −28%
- QRS (ms) Value [3]: 82 ms
- QT (ms) Delta (change from baseline) [3]: 4 ms
- QT (ms) Value [3]: 482 ms
- QTcB (ms) Delta (change from baseline) [3]: 4 ms
- QTcB (ms) Value [3]: 518 ++ ms
- HR (bpm) Delta (change from baseline) [4]: −6 bpm
- HR (bpm) Value [4]: 77 bpm
- PR % change from baseline [4]: 0.0%
- PR (ms) Value [4]: 160 ms
- QRS % change from baseline [4]: −4.8%
- QRS (ms) Value [4]: 80 ms
- QT (ms) Delta (change from baseline) [4]: 118 ms
- QT (ms) Value [4]: 466 ms
- QTcB (ms) Delta (change from baseline) [4]: 121 ++ ms
- QTcB (ms) Value [4]: 530 ++ ms
